Measured values as given in publication PMC9820303, “^αN-Acetyl β-Endorphin Is an Endogenous Ligand of σ1Rs That Regulates Mu-Opioid Receptor Signaling by Exchanging G Proteins for σ2Rs in σ1R Oligomers” (International Journal of Molecular Sciences, 2022).

Tests used:
σ1R-σ2R = σ1R-σ2R (Mus musculus, UniProt O55242); experiment: σ1R/σ2R coprecipitation from CHO cells cotransfected with cMyc-σ1R and HA-σ2R; format: cell-based, Chinese hamster ovary (CHO) cells; set-up: Full-length sigma receptors were subcloned in frame; expressed in transfected cells; host or cells: CHO cells; conditions: peptides 1 nM, PRE084, S1RA and BD1047 100 nM; 30 min in serum-free medium
Sequence of σ1R-σ2R (O55242 whole entry): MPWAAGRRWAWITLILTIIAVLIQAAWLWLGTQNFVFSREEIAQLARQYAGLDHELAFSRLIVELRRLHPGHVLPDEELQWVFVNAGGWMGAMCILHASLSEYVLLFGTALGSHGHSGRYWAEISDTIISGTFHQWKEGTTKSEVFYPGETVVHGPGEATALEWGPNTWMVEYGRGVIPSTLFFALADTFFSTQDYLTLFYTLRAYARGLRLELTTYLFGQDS
Protocol: Effect of β-End 1–31 and ^αN-acetyl derivative. (A) Single-wavelength and merged images of CHO cells cotransfected with cMyc-σ1R and HA-σ2R. The cells were fixed 48 h after transfection and analyzed by confocal laser scanning microscopy. Transient expression of proteins within the transfected cells was detected with anti-cMyc (green) and anti-HA (red) antibodies (original magnification 10×). […] Scale bar: 30 µm. (B) Nuclei stained with DAPI (blue). (C–F) Single-wavelength and merged images are enlargements of individual cells. Scale bar: 5 µm. Lower panels: (G) Immunoprecipitation (IP) of tagged sigma receptor types from cotransfected CHO cells. […] Representative blots are shown.
CHO cells were cultured in modified Eagle’s medium/nutrient mixture F-12 (DMEM/F12) supplemented with GlutaMax (#31331028, ThermoFisher, Spain), 10% foetal bovine serum (#10500064, ThermoFisher), 100 IU/mL penicillin and 100 μg/mL streptomycin (#15140148, ThermoFisher) at 37 °C in a humidified 5% CO2 incubator as described previously. Full-length sigma receptors were subcloned in frame into the pSF-CMV-Puro-NH2-CMyc N-terminal tag (σ1R, #OGS3214, Merck-Sigma) and pSF-CMV-Puro-NH2-HA N-terminal tag (σ2R, #OGS1500, Merck-Sigma) mammalian plasmids using standard cloning strategies. CHO cells were seeded on 12-well plates at a concentration of 0.35 × 10^6 cells per well, grown in Opti-MEM™ I Reduced Serum Medium (#31985070, ThermoFisher) to 70–80% confluence, transfected using Lipofectamine 2000 (#11668030, Invitrogen) and incubated for 24 h prior to testing for transgene expression. For all experiments, the culture medium was replaced with serum-free medium before the addition of sigma ligands and incubated for 30 min. Cells were then harvested and cellular extracts were prepared for immunoprecipitation analysis. Receptors were detected by Western blot analysis using an antibody that recognizes either tag: Myc-tag (#MA1 21316 BTIN, Invitrogen), HA-tag (#26183-BTIN, Invitrogen).

[1] = tested on: pMCAO in CD1 mice (wild-type and σ1R−/−); experiment: Permanent unilateral middle cerebral artery occlusion (pMCAO), infarct size by TTC staining; format: in vivo, mouse
Protocol: Figure 1 ^αN-acetyl β-End 1–31 reduced ischemic brain damage and diminished seizures induced by NMDAR overactivation. Implication of σ1Rs. (A) ^αN-acetyl β-End 1–31 administration diminished ischemic brain damage in wild-type but not σ1R^−/− mice. Upper panel: representative 2,3,5-triphenyltetrazolium chloride (TTC)-stained brain section images obtained from saline- and drug-treated mice (3 nmol, 1 h after surgery) 48 h after pMCAO. White indicates infarction; red staining indicates normal tissue. Lower panel: the bar graphs quantitatively compare the infarct volume based on TTC staining from wild-type mice treated with saline, β-End 1–31 and the σ1R agonist PRE084 (white bars). The reducing effect of ^αN-acetyl β-End 1–31 was counteracted by β-End 1–31 and PRE084 (gray bars). In σ1R^−/− mice, the positive effect of ^αN-acetyl β-End 1–31 was not observed. […] Effects of PPCC, β-End 1–31 and ^αN-acetyl β-End 1–31 on seizures induced by NMDA in wild-type and σ1R^−/− mice. The mice received icv 1 nmol of the NMDAR agonist NMDA 30 min after the other drugs (3 nmol) and were then immediately evaluated. […] ANOVA followed by the Holm–Sidak multiple comparisons test, p < 0.05, 1-β > 0.80.
Focal cerebral ischemia was induced via pMCAO, as described previously. Briefly, mice were anesthetized and a vertical skin incision was made between the left eye and ear under a dissection microscope. After drilling a small hole in the cranium at the level of the distal portion of the middle cerebral artery, the artery was occluded by cauterization. Flow obstruction was visually verified. Animals showing subdural haemorrhages or signs of incorrect surgery were immediately excluded from the study (<5% in each group). The mice were returned to their cages after surgery, kept at room temperature, and allowed food and water ad libitum. Strong lesion reproducibility was observed. […] The investigator performing the pMCAO surgery was blinded to the treatment group. To determine the infarct size 48 h after surgery, animals were euthanized and their brains were removed, after which six 1 mm thick coronal brain slices (Brain Matrix, WPI, UK) were obtained. The sections were stained with 2,3,5-triphenyltetrazolium chloride (1% TTC, Merck-Sigma). Samples were taken from each side of all brain sections with a digital camera (Nikon Coolpix 990, Tokyo, Japan), and the extent of unstained infarct area (expressed in mm^2) was integrated from the total area as an orthogonal projection.

σ1R oligomers = biological target: T1, σ1R oligomers (Mus musculus, UniProt O55242); experiment: In vitro made σ1R oligomers on agarose-σ1R; format: biochemical, murine; conditions: agarose-σ1R plus free σ1Rs (100 nM), Tris-HCl pH 7.4, 0.2% CHAPS, 2.5 mM CaCl2
T1 construct: The coding region of the full-length murine σ1R (AF004927); GST (N); made in house; host or cells: E. coli BL21 (KRX)
T1 sequence (O55242 whole entry): as above
Protocol: In ex vivo fishing assays performed on mouse solubilized brain membranes enriched in synaptosomes (SBM), our bait, agarose-covalently attached σ1Rs (agarose-σ1R), captured diverse prey, such as trimeric G proteins, σ1Rs and σ2Rs (Figure 4C). Because σ1Rs form oligomers in vivo that can be altered by ligands, we added in vitro free σ1Rs to agarose-σ1Rs. After removing the unbound σ1Rs, the extent of the σ1R oligomerization that remained around the agarose-σ1R was determined by SDS-PAGE followed by Western blot analysis (Figure S3).
Figure S4. In vitro made σ1R oligomers. A) Effect of σ1R ligands on the formation of σ1R oligomers.
Agarose (Θ)-attached σ1Rs were incubated for 30 min in the presence of recombinant free σ1Rs (100 nM) in 300 μL of 50 mM Tris-HCl (pH 7.4), 0.2% CHAPS, and 2.5 mM CaCl2. After removing unbound σ1R proteins, the assays were performed in the absence (control) or presence of increasing concentrations of σ1R ligands. The agarose-bound σ1R protein complexes were obtained by centrifugation, washed three times, solubilized in 2x Laemmli buffer containing β-mercaptoethanol, resolved by SDS-PAGE, and analyzed by Western blotting (for more details see Methods). […] The G proteins that remained bound to Θ-σ1R oligomers were determined as in Figure 4C. The arrows indicate an estimated afﬁnity of the ligand for σ1Rs, as determined through in vitro assays. […]

| Compound | effect on σ1R-σ2R association in CHO cells (σ1R-σ2R) | effect on in vitro made σ1R oligomers (σ1R oligomers) | also measured |
| --- | --- | --- | --- |
| Br.Br.CN(C)CCN(C)CCc1ccc(Cl)c(Cl)c1 [BD1047, N′-[2-(3,4-dichlorophenyl)ethyl]-N,N,N′-trimethylethane-1,2-diamine;dihydrobromide, reference compound] | preserved these protein complexes | – | – |
| Cl.O=C(OCCN1CCOCC1)C1(c2ccccc2)CCCCC1 [PRE084, 2-(4-morpholinethyl)-1-phenylcyclohexanecarboxylate hydrochloride, reference compound] | strongly decreased the σ1R-σ2R association | – | effect on the neuroprotection provided by ^αN-acetyl β-End 1–31 ([1]; given with ^αN-acetyl β-End 1–31 (3 nmol icv), wild-type mice): prevented the neuroprotection; effect on infarct volume, given alone ([1]; icv 60 min postsurgery (3 nmol), 48 h after pMCAO, wild-type mice): did not alter the extent of infarct volume |
| Cc1cc(OCCN2CCOCC2)nn1-c1ccc2ccccc2c1 [S1RA] | preserved these protein complexes | – | – |
| KKGE [β-End 28–31, C-terminal tetrapeptide of β-End 1–31] | – | released σ1Rs from these oligomers | – |
| ^αN-acetyl β-End 1–31: β-End 1–31 acetylated at N terminal Y1, α position | preserved these protein complexes | released σ1Rs from these oligomers | infarct volume ([1]; 3 nmol icv 60 min postsurgery, 48 h after pMCAO, wild-type mice, mean ± SD, 5 to 8 mice, SD): 1.2 ± 0.9 % of the total brain volume; reduction in the infarct size ([1]; 3 nmol icv 60 min postsurgery, 48 h after pMCAO, wild-type mice, untreated infarct 5.4 ± 1.2% of total brain volume): ~80%; protective effect on pMCAO-produced ischemia in σ1R−/− mice ([1]; σ1R−/− mice, 3 nmol icv): did not exhibit protective effects |
